Experimental data reported in paper PMC5541560, “A biomimetic semisynthesis enables structural elucidation of selaginellin U: a tautomeric cyclic alkynylphenol from Selaginella tamariscina” (Royal Society Open Science, 2017).

Columns and labels:
[1] = molecular target: T1, β-site amyloid precursor protein cleaving enzyme 1 (BACE1) (Homo sapiens, UniProt P56817); test: FRET peptide substrate assay (Sigma kit CS0010), purified baculovirus-expressed BACE1; format: biochemical
[2] = molecular target: T1, β-site amyloid precursor protein cleaving enzyme 1 (BACE1); test: biochemical; design: FRET peptide substrate cleavage assay (Sigma kit CS0010), purified baculovirus-expressed BACE1, inhibition
Procedure: Compounds 1–3 and 7–16 were tested for β-site amyloid precursor protein (APP) cleaving enzyme 1 (BACE1) inhibitory activity. BACE1 inhibitory evaluation was performed with a fluorescence resonance energy transfer (FRET) assay kit supplied by Sigma (Kit CS0010, St. Louis, USA). The kit used purified baculovirus-expressed BACE1 and FRET peptide substrates.

T1 sequence (P56817 46-457): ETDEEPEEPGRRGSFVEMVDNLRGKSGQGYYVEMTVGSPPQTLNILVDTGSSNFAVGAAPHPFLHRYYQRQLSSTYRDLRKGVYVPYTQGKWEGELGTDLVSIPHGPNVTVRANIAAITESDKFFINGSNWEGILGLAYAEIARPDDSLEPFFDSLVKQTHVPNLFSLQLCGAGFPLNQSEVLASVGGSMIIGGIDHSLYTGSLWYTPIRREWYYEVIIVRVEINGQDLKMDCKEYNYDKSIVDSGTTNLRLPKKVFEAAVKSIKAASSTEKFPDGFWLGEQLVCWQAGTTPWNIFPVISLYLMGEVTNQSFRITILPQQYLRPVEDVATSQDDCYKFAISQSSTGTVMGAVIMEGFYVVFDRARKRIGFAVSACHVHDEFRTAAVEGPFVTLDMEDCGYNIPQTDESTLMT

SMILES	IC50 [1] [µM]	IC50 [2] [µM]
OCc1ccc2c(c1C#Cc1ccc(O)cc1)C(c1ccc(O)cc1)(c1ccc(O)cc1)c1cc(O)ccc1-2 [compound 7, selaginpulvilin A]	–	> 100
Cc1ccc(-c2ccc(O)cc2)c(C(=C2C=CC(=O)C=C2)c2ccccc2)c1C#Cc1ccc(O)cc1 [compound 12, selaginellin A]	–	> 100
O=C1OC(c2ccc(O)cc2)(c2ccc(O)cc2)c2c1cccc2-c1ccc(O)cc1 [compound 1, selaginellin T]	–	> 100
O=C1C=CC(=C(c2ccc(O)cc2)c2c(-c3ccc(O)cc3)ccc3c(=O)oc(-c4ccc(O)cc4)cc23)C=C1 [compound 2, selaginellin U]	–	> 100

Now from value to molecule:

IC50 [1] [µM]	IC50 [2] [µM]	SMILES
51.1	–	Cc1ccc(-c2ccc(O)cc2)c(C(=C2C=CC(=O)C=C2)c2ccc(O)cc2)c1C#Cc1ccc(O)cc1 [compound 13, selaginellin B]
48.9	–	O=Cc1ccc(-c2ccc(O)cc2)c(C(=C2C=CC(=O)C=C2)c2ccc(O)cc2)c1C#Cc1ccc(O)cc1 [compound 16, selaginellin O]
81.2	–	O=C1C=CC(=C(c2ccc(O)cc2)c2c(-c3ccc(O)cc3)ccc(CO)c2C#Cc2ccc(O)cc2)C=C1 [compound 3, selaginellin]
–	> 100	COc1ccc(C(=C2C=CC(=O)C=C2)c2c(-c3ccc(O)cc3)ccc(CO)c2C#Cc2ccc(O)cc2)cc1 [compound 15, selaginellin M]
